One test relates to Botrytis cinerea. Kind of test: Antifungal activity against Botrytis cinerea Tu 157 at 1 mg/ml after 48 hrs by disk diffusion assay. Type of test: functional, organism-based. On the technique in general: A growth-free zone around the sample is the usual read-out of agar diffusion tests.
Test [1] has as its system Radical scavenging activity. Put plainly: Antioxidant activity assessed as DPPH radical scavenging activity after 30 mins. Format: functional. A general note: The DPPH test is a chemical assay of radical scavenging.
Test [2] has as its system Paenarthrobacter aurescens. Put plainly: Antibacterial activity against Arthrobacter aurescens DSM 20166 at 1 mg/ml after 24 hrs by disk diffusion assay. Type of test: functional, organism-based.
A further test relates to Bacillus subtilis. Put plainly: Antibacterial activity against Bacillus subtilis DSM 10 at 1 mg/ml after 24 hrs by disk diffusion assay. Format: functional, organism-based.
For another test, the system named is Brevibacillus brevis. Put plainly: Antibacterial activity against Brevibacillus brevis DSM 30 at 1 mg/ml after 24 hrs by disk diffusion assay. Type of test: functional, organism-based.
A further test concerns Staphylococcus aureus. Kind of test: Antibacterial activity against Staphylococcus aureus DSM 20231 at 1 mg/ml after 24 hrs by disk diffusion assay. Type of test: functional, organism-based.
Test [3] has as its system Streptomyces viridochromogenes. Kind of test: Antibacterial activity against Streptomyces viridochromogenes Tu 57 at 1 mg/ml after 24 hrs by disk diffusion assay. Type of test: functional, organism-based.
A further test concerns Escherichia coli. Put plainly: Antibacterial activity against Escherichia coli K-12 at 1 mg/ml after 24 hrs by disk diffusion assay. Type of test: functional, organism-based.
The subject of a further test is Pseudomonas fluorescens. Kind of test: Antibacterial activity against Pseudomonas fluorescens DSM 50090 at 1 mg/ml after 24 hrs by disk diffusion assay. Type of test: functional, organism-based.
The test system of a further test is Proteus mirabilis. Kind of test: Antibacterial activity against Proteus mirabilis ATCC 35501 at 1 mg/ml after 24 hrs by disk diffusion assay. Type of test: functional, organism-based.
The next test relates to Candida albicans. Put plainly: Antifungal activity against Candida albicans Tu 164 at 1 mg/ml after 48 hrs by disk diffusion assay. Type of test: functional, organism-based.
In another test the test system is Saccharomyces cerevisiae. Kind of test: Antifungal activity against Saccharomyces cerevisiae ATCC 9080 at 1 mg/ml after 48 hrs by disk diffusion assay. Format: functional, organism-based.
A further test deals with Penicillium chrysogenum. Kind of test: Antifungal activity against Penicillium notatum Tu 136 at 1 mg/ml after 48 hrs by disk diffusion assay. Type of test: functional, organism-based.

The text below walks through data of ChEMBL document CHEMBL1154380, “Lipocarbazoles, secondary metabolites from Tsukamurella pseudospumae Acta 1857 with antioxidative activity” (J Nat Prod, 2009).

Active and inactive are the calls of the source. No cut-off for these calls is given here.

The term IC50 denotes the midpoint of a concentration-inhibition curve. On to `CCCCCCCCCCCCCCCCCc1c(C)c(O)cc2c1[nH]c1ccccc12`, for which the outcome (with Botrytis cinerea; in test [2]; in the test on Bacillus subtilis; in the test with Brevibacillus brevis; with Staphylococcus aureus; in test [3]) was inactive. For the same molecule, the outcome in the test on Escherichia coli, with Pseudomonas fluorescens, in the test with Proteus mirabilis, in the test with Candida albicans, in the test with Saccharomyces cerevisiae and in the test with Penicillium chrysogenum was inactive. The half-maximal inhibitory concentration (IC50) in test [1] is 10.5 µM.
Turning to `CC/C=C\C/C=C\C/C=C\CCCCCCCc1c(C)c(O)cc2c1[nH]c1ccccc12`, the result (in the test with Botrytis cinerea; in test [2]; in the test on Bacillus subtilis; with Brevibacillus brevis; in the test with Staphylococcus aureus; in [3]) was inactive. In addition, the result with Escherichia coli, in the test on Pseudomonas fluorescens, in the test with Proteus mirabilis, with Candida albicans, in the test on Saccharomyces cerevisiae and in the test on Penicillium chrysogenum was inactive.
As for `CCCCCCCC/C=C\CCCCCCCc1c(C)c(O)cc2c1[nH]c1ccccc12` [LIPOCARBAZOLE A3], the result (in the test with Botrytis cinerea; in test [2]; with Bacillus subtilis; in the test with Brevibacillus brevis; in the test with Staphylococcus aureus; in test [3]) was inactive. For the same molecule, the outcome in the test on Escherichia coli, in the test with Pseudomonas fluorescens, in the test on Proteus mirabilis, with Candida albicans, with Saccharomyces cerevisiae and in the test with Penicillium chrysogenum was inactive. The 50% inhibitory concentration (IC50) in test [1] was determined as 8.7 µM.
Take `CCCCC/C=C\C/C=C\CCCCCCCc1c(C)c(O)cc2c1[nH]c1ccccc12`: the outcome (with Botrytis cinerea; in [2]; with Bacillus subtilis; with Brevibacillus brevis; in the test with Staphylococcus aureus; in test [3]) was inactive. For the same molecule, the result with Escherichia coli, with Pseudomonas fluorescens, in the test on Proteus mirabilis, in the test with Candida albicans, in the test with Saccharomyces cerevisiae and in the test with Penicillium chrysogenum was inactive.
Turning to `CCCOC(=O)c1cc(O)c(O)c(O)c1` [PROPYL GALLATE], in [1], the half-maximal inhibitory concentration (IC50) was 4.4 µM.
In the case of `O=C1O[C@H]([C@@H](O)CO)C(O)=C1O` [ASCORBIC ACID], the IC50 in [1] came to 13.4 µM.
